Experimental data: ChEMBL document CHEMBL6177932 (J Med Chem, 2024)
Activity calls are given as the source filed them. No cut-off for these calls is given here.

Key:
[1] = target: T1, Protein deacetylase HDAC6 (Mus musculus) (UniProt Q9Z2V5); assay: Inhibition of HDAC6 in mouse 4T1 cells assessed as induction of tubulin acetylation at 10 uM measured after 6 hrs by Western blot analysis; type: cell-based
T1 sequence (whole entry): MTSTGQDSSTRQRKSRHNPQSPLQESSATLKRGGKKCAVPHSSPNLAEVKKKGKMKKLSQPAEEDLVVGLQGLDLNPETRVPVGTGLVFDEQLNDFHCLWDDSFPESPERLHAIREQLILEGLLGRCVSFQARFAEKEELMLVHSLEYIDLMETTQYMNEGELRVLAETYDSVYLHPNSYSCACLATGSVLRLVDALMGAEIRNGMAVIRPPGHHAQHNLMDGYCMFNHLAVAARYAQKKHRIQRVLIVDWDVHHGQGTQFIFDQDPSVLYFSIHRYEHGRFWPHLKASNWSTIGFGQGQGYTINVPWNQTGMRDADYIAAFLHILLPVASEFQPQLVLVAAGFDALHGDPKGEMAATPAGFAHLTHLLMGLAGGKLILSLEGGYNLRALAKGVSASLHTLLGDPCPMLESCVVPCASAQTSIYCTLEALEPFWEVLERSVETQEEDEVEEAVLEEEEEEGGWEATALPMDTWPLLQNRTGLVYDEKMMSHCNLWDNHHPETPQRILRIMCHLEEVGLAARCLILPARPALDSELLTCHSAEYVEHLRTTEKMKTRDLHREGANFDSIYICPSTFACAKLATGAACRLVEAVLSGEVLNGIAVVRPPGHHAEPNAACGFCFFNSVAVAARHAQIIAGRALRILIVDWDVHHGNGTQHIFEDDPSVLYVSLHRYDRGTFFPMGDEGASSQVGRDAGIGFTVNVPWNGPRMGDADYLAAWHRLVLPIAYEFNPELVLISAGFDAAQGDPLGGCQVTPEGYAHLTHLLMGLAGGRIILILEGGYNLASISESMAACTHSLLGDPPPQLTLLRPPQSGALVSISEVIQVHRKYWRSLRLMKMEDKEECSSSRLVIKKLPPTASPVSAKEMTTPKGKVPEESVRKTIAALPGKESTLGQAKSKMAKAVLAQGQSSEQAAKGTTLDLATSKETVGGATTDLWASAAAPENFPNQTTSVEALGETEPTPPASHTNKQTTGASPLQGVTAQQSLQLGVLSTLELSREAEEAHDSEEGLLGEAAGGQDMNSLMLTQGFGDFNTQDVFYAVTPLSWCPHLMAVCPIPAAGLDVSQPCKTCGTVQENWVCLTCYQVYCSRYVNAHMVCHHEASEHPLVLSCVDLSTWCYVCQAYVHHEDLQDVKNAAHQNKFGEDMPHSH

4T1 = assay: Inhibition of class 1 HDAC in mouse 4T1 cells assessed as induction of H3K9 acetylation at 10 uM measured after 6 hrs by Western blot analysis; type: cell-based
[2] = target: T1, Protein deacetylase HDAC6 (Mus musculus); assay: Inhibition of HDAC6 in mouse 4TO7 cells assessed as induction of tubulin acetylation at 10 uM measured after 6 hrs by Western blot analysis; type: cell-based
4TO7 [3] = assay: Inhibition of class 1 HDAC in mouse 4TO7 cells assessed as induction of H3K9 acetylation at 10 uM measured after 6 hrs by Western blot analysis; type: cell-based
4TO7 [4] = assay: Inhibition of class 1 HDAC in mouse 4TO7 cells assessed as induction of H3K27 acetylation at 10 uM measured after 6 hrs by Western blot analysis; type: cell-based
B16-F10 [5] = assay: Inhibition of class 1 HDAC in mouse B16-F10 cells assessed as induction of H3K9 acetylation at 10 uM measured after 6 hrs by Western blot analysis; type: cell-based
B16-F10 [6] = assay: Antitumor activity against mouse B16-F10 cells implanted in C57BL/6 mouse assessed as reduction in tumor burden at 5 mg/kg, ip administered every second day for 18 days; type: functional, organism-based; conditions: time 18.0 day
[7] = Toxicity in 4T1 cells implanted BALB/c mouse assessed as stress at 1.5 to 5 mg/kg, ip administered daily for 18 days; type: organism-based; conditions: in vivo, 432 h, dose 1.5-5 mg/kg, time 18 day
Mus musculus [8] = assay: Immunomodulatory activity in mouse 4T1 cells implanted BALB/c mouse assessed as reduction in Ccl2 gene expression at 1.5 to 5 mg/kg, ip administered daily for 18 days by RT-qPCR analysis; type: functional, organism-based; conditions: dose 1.5-5 mg/kg, time 18.0 day
Mus musculus [9] = assay: Immunomodulatory activity in mouse 4T1 cells implanted BALB/c mouse assessed as reduction in Ccl5 gene expression at 1.5 to 5 mg/kg, ip administered daily for 18 days by RT-qPCR analysis; type: functional, organism-based; conditions: dose 1.5-5 mg/kg, time 18.0 day
Mus musculus [10] = assay: Immunomodulatory activity in mouse 4T1 cells implanted BALB/c mouse assessed as reduction in Cxcl10 gene expression at 1.5 to 5 mg/kg, ip administered daily for 18 days by RT-qPCR analysis; type: functional, organism-based; conditions: dose 1.5-5 mg/kg, time 18.0 day
Mus musculus [11] = assay: Immunomodulatory activity in mouse 4T1 cells implanted BALB/c mouse assessed as induction of Il1a gene expression at 1.5 to 5 mg/kg, ip administered daily for 18 days by RT-qPCR analysis; type: functional, organism-based; conditions: dose 1.5-5 mg/kg, time 18.0 day
Mus musculus [12] = assay: Immunomodulatory activity in mouse 4T1 cells implanted BALB/c mouse assessed as reduction in M2 macrophage infiltration into tumors at 1.5 to 5 mg/kg, ip administered daily for 18 days by arginase 1 staining based immunofluorescence microscopy; type: functional, organism-based; conditions: dose 1.5-5 mg/kg, time 18.0 day

CCC(CC)(c1ccc(C(=O)NCCCCC(=O)NO)cc1)c1ccc(OCC(O)C(C)(C)C)c(C)n1 (stereo not drawn)
inhibition [1]: Active; Most Efficacious Than Saha
inhibition (4T1): Active
inhibition [2]: Active; Induced Higher Levels Of Acetylation Than Saha
inhibition (4TO7 [3]): Active; Induced Higher Levels Of Acetylation Than Saha
inhibition (4TO7 [4]): Active; Induced Higher Levels Of Acetylation Than Saha
inhibition (B16-F10 [5]): Active; Acetylation Was Comparable Or Greater Than Saha
Activity (B16-F10 [6]): Active
Activity [7]: Non-toxic
Activity (Mus musculus [8]): Active
Activity (Mus musculus [9]): Active
Activity (Mus musculus [10]): Active
Activity (Mus musculus [11]): Active
Activity (Mus musculus [12]): Active; Compound Was Most Efficacious At Reducing The M2 Macrophages
